Patent US5385922A, “Thiazolidine derivatives” (Cedona Pharmaceuticals B.V., priority 1990, dated 1995)
Counter-ions that a name gives are not always drawn. Like-named read-outs stand apart in the source and are kept apart here.

How the values were obtained:
[1] = test system: contracted rat aorta; experiment: In vitro rat aorta assay: relaxation of aorta strips contracted with phenylephrine; type: cell-based; conditions: read-out: EC50 (mean): concentration at which residual contraction is 50% of maximum
Protocol: Strips of thoracial rat aortae (without aortic arch, helically cut; length 1-1.5 cm; width about 2 mm) were place in an organ bath [20 ml; Krebs Ringer medium bubbled with O2 /CO2 (95/5%) at 37° C.]. A resting tension of 0.5 g was applied and the preparations were equilibrated during 100 min (fresh buffer solution every 20 min). The strips were isotonically contracted with 10^-7 M phenylephrine.
Drug-induced relaxation was tested at increasing concentration (half log steps), till maximal or full relaxation (corresponding to basal precontraction value of organ length) had been reached.
Responses were calculated as change in organ length relatively to maximal displacement by contraction, EC50 values corresponding to the drug concentration at which residual contraction is 50% of maximum.

[2] = test system: arterial blood pressure; experiment: Anesthetized rabbit experiments: arterial blood pressure and heart rate after infusion; type: in vivo, New Zealand white rabbits; note: key: Inactive: No decrease or decrease less than 5%; Active: Decrease between 5 and 40%; Very Active: Decrease greater than 40%
Protocol: In the anesthetized rabbits, the decrease of arterial blood pressure and the effect on the heart rate after infusion of the test compounds was determined.
New Zealand white rabbits (2.5-3 kg) were anesthetized (30 mg×kg^-1 pentobarbitone, i.v., supplemental doses as needed). Tracheotomy was performed, and an intra-tracheal cannula was inserted. No artificial ventilation was applied and body temperature was maintained at 37°-38° C.
Left ventricular pressure (LVP) was measured (Millar Mikro-Tip catheter via the right carotid artery with transducer in the left ventricle). The LVP signal was differentiated electronically to obtain the rate of change of LVP (LV dP/dt). The heart rate (HR) was derived from the LVP pulse signal. The jugular vein was cannulated for infusion of the test compounds. Aortic blood pressure (SAP and DAP) was monitored (Gould-Statham pressure transducer) by inserting a polyethylene catheter filled with heparin (50 IU×ml^-1) through the femoral artery into the abdominal aorta. Heparin (150 IU×kg^-1, i.v.) was administered to prevent blood clotting.
After completion of surgical procedures, the rabbits were allowed to recover for 15 minutes before drug administration was started.
Drugs were infused at constant rate (0.5 ml×min^-1) for 10 minutes at various doses, resulting in a typical dose range of 2.0, 20.0 and 200 μg×kg^-1 ×min^-1 (2.5 kg rabbit).
Due to poor solubility, 1 mg×ml^-1 solutions of all the compounds tested were prepared in Intralipid® 10%, containing 10% (v/v) dimethyl sulfoxide (DMSO). […] At the infusion of lower doses, the 1 mg×ml^-1 stock solutions were diluted with Intralipid® 10%.
The presented data are based on the effects obtained at the end of the 10 min infusion period at the highest dose tested (150-200 μg×kg^-1 ×min^-1). The indicated ratings are referring to the effects (decrease, defined as percentage of basal value before infusion of the drug) on arterial blood pressure as follows: […]

[3] = rat aorta strips contracted with 10^-7 M phenylephrine
[4] = anesthetized rabbit, end of 10 min infusion at highest dose tested (150-200 μg×kg^-1×min^-1), decrease as percentage of basal value

EC50 [1, 3] [nM] | Compound | Activity with regard to the lowering of blood pressure [2, 4] | further results
9500 | 2-Butyl-5,5-dimethyl-N-(4-methylbenzenesulphonyl)-4-[(5-nitroxyisosorbide)carbonyl]thiazolidine [Example IV] |  | 
54 | 4-Carboxy-2-[3-4-(2-nitroxyethoxy)phenyl]thiazolidine [Example XXXV] |  | 
21 | O=C(O)C1CSC(c2ccccc2OC[C@H]2CC[C@H](CO[N+](=O)[O-])CC2)N1 (relative stereo) [Example XXIX, 4-Carboxy-2-(2-{[4-nitroxymethyl-(trans)-cyclohexyl]methoxy}phenyl)thiazolidine] | Active | 
750 | CCCCC1SCC(C(=O)OC2COC3C(O[N+](=O)[O-])COC23)N1S(=O)(=O)c1ccc(C)cc1 (stereo not shown) [Example I, 2-Butyl-N-(4-methylbenzenesulphonyl)-4-[(5-nitroxyisosorbide)carbonyl]thiazolidine] |  | 
740 | CCCCC1SCC(C(=O)OC2COC3C(O[N+](=O)[O-])COC23)N1C(=O)c1ccccc1 (stereo not shown) [Example II, N-benzoyl-4-[(5-nitroxyisosorbide)carbonyl]-2-butylthiazolidine] |  | 
700 | O=C(COc1ccccc1C1NC(C(=O)O)CS1)NCCO[N+](=O)[O-] (stereo not shown) [Example IX, 4-Carboxy-2-{2-[(2-nitroxyethyl)aminocarbonylmethoxyl]phenyl}thiazolidine] |  | 
330 | O=C(NCCO[N+](=O)[O-])c1ccc(C2NC(C(=O)O)CS2)cc1 (stereo not shown) [Example V, 4-Carboxy-2-{4-[(2-nitroxyethyl)aminocarbonyl]phenyl}thiazolidine] |  | 
1620 | CC(=O)N1C(C(=O)NCCO[N+](=O)[O-])CSC1c1ccccc1C(=O)O (stereo not shown) [Example VI, N-acetyl-2-(2-carboxyphenyl)-4-[(2-nitroxyethyl)aminocarbonyl]thiazolidine] |  | 
20 | CCOC(=O)C1CSC(c2ccc(C(=O)NCCO[N+](=O)[O-])cc2)N1 (stereo not shown) [Example VII, 4-Ethoxycarbonyl-2-{4-[(2-nitroxyethyl)aminocarbonyl]phenyl}thiazolidine×HCl] |  | 
1880 | CC(=O)N1C(C(=O)NCCO[N+](=O)[O-])CSC1c1ccccc1 (stereo not shown) [Example VIII, N-acetyl-2-phenyl-4-[(2-nitroxyethyl)aminocarbonyl]thiazolidine] |  | 
390 | COc1cc(C2NC(C(=O)O)CS2)ccc1OCC(=O)NCCO[N+](=O)[O-] (stereo not shown) [Example X, 4-Carboxy-2{3-methoxy-4-[(2-nitroxyethyl)aminocarbonylmethoxy]phenyl}thiazolidine] |  | 
270 | CCOC(=O)C1CSC(c2ccc(OCC(=O)NCCO[N+](=O)[O-])c(OC)c2)N1 (stereo not shown) [Example XI, 4-Ethoxycarbonyl-2-{[3-methoxy-4-(2-nitroxyethyl)aminocarbonylmethoxy]phenyl}-thiazolidine hydrochloride] |  | 
650 | CCOc1cccc(C2NC(C(=O)O)CS2)c1OCCO[N+](=O)[O-] (stereo not shown) [Example XII, 4-Carboxy-2-[3-ethoxy-2-(2-nitroxyethoxy)phenyl]thiazolidine] |  | 
22 | O=C(O)C1CSC(c2ccc(OCCO[N+](=O)[O-])cc2)N1 (stereo not shown) [Example XIII, 4-Carboxy-2-[4-(2-nitroxyethoxy)phenyl]thiazolidine] | Active | 
230 | COc1cccc(C2NC(C(=O)O)CS2)c1OCCO[N+](=O)[O-] (stereo not shown) [Example XIV, 4-Carboxyl-2-[3-methoxy-2-(2-nitroxyethoxy)phenyl]thiazolidine] |  | 
7 | COc1ccc(OCCO[N+](=O)[O-])c(C2NC(C(=O)O)CS2)c1 (stereo not shown) [Example XV, 4-Carboxy-2-[5-methoxy-2-(2-nitroxyethoxy)phenyl]thiazolidine] | Active | 
 | O=C(O)C1CSC(c2ccccc2OCCO[N+](=O)[O-])N1 (stereo not shown) [Example XVI, 4-Carboxy-2-[2-(2-nitroxyethoxy)phenyl]thiazolidine] | Active | 

EC50 [1, 3] [nM] | Compound | Activity with regard to the lowering of blood pressure [2, 4] | further results
720 | CC(=O)N1C(C(=O)O)CSC1c1ccccc1OCCO[N+](=O)[O-] (stereo not shown) [Example XVII, N-acetyl-4-carboxy-2-[2-(2-nitroxyethoxy)phenyl]thiazolidine] |  | 
47 | O=C(O)C1CSC(c2cccc(OCCO[N+](=O)[O-])c2)N1 (stereo not shown) [Example XVIII, 4-Carboxy-2-[3-(2-nitroxyethoxy)phenyl]thiazolidine] |  | 
 | O=C(O)C1CSC(c2cc([N+](=O)[O-])ccc2OCCO[N+](=O)[O-])N1 (stereo not shown) [Example XXI, 4-Carboxy-2-[5-nitro-2-(2-nitroxyethoxy)phenyl]thiazolidine] |  | Activity with regard to the lowering of blood pressure ([2]; rabbit, in vivo): Active; EC50 ([1]; Rattus norvegicus): 25 nM
23 | CC(=O)N1C(CCc2ccccc2)SCC1C(=O)OC[C@H]1CC[C@H](CO[N+](=O)[O-])CC1 (stereo partly shown) [Example XXII, N-acetyl-2-(2-phenylethyl)-4-[(4-nitroxymethylcyclohexyl)methoxycarbonyl]thiazolidine] | Active | 
900 | O=C(COc1ccc(C2NC(C(=O)O)CS2)cc1)NCCO[N+](=O)[O-] (stereo not shown) [Example XXIV, 4-Carboxy-2-{4-[(2-nitroxyethyl)aminocarbonylmethoxy]phenyl}thiazolidine] |  | 
20 | O=C(O)C1CSC(c2cc(Cl)ccc2OCCO[N+](=O)[O-])N1 (stereo not shown) [Example XXV, 4-Carboxy-2-[5-chloro-2-(2-nitroxyethoxy)phenyl]thiazolidine] | Active | 
102 | CC(C)(COc1ccccc1C1NC(C(=O)O)CS1)CO[N+](=O)[O-] (stereo not shown) [Example XXX, 4-Carboxy-2-[2-(2,2-dimethyl-3-nitroxypropoxy)phenyl]thiazolidine] | Active | 
37 | O=C(O)C1CSC(c2ccccc2OCCCO[N+](=O)[O-])N1 (stereo not shown) [Example XXXII, 4-Carboxy-2-[2-(3-nitroxypropoxy)phenyl]thiazolidine] |  | 
9.7 | O=[N+]([O-])OCCOc1cccc(C2NCCS2)c1 (stereo not shown) [XIX, 2-[3-(2-Nitroxyethoxy)phenyl]thiazolidine×HCl] |  | 
820 | COc1cc(C2NC(C(=O)O)CS2)cc(Br)c1OCCO[N+](=O)[O-] (stereo not shown) [XXIII, 2-[3-Bromo-5-methoxy-4-(2-nitroxyethoxy)phenyl]-4-carboxythiazolidine] |  | 
57 | CC1(C)SC(c2ccccc2OCCO[N+](=O)[O-])N[C@H]1C(=O)O (stereo partly shown) [XXVI, 4-Carboxy-5,5-dimethyl-2-[(2-nitroxyethoxy)phenyl]thiazolidine] | Active | 
6.7 | O=[N+]([O-])OCCOc1ccccc1C1NCCS1 (stereo not shown) [XXVII, 2-[(2-Nitroxyethoxy)phenyl]thiazolidine oxalate hydrate] | Active | 
9.4 | CCOC(=O)[C@@H]1CSC(c2ccccc2OCCO[N+](=O)[O-])N1 (stereo partly shown) [XXVIII, 4-Ethoxycarbonyl-2-[2-(2-nitroxyethoxy)phenyl]thiazolidine 4-toluenesulphonate] | Active | 
2770 | CC(C)(CO[N+](=O)[O-])C(=O)N1C(C(=O)O)CSC1c1ccccc1 (stereo not shown) [XXXIII, 4-Carboxyl-N-(2,2-dimethyl-3-nitroxypropionyl)-2-phenylthiazolidine] |  | 
48 | CC(COc1ccccc1C1NC(C(=O)O)CS1)O[N+](=O)[O-] (stereo not shown) [XXXVI, 4-Carboxy-2-[2-(2-nitroxypropoxy)phenyl]thiazolidine] | Active | 
98 | N-benzoyl-2-butyl-5,5-dimethyl-4-[(5-nitroxyisosorbide)carbonyl]thiazolidine [Example III] | Active | 

Compound | EC50 [1, 3] [nM] | Activity with regard to the lowering of blood pressure [2, 4] | further results
O=C(O)C1CSC(c2ccccc2OCCCCO[N+](=O)[O-])N1 (stereo not shown) [XXXIV, 4-Carboxy-2-[2-(4-nitroxybutoxy)phenyl]thiazolidine] | 17 |  | 
